From US20220168313A1, “HETEROCYCLIC COMPOUNDS AND USES THEREOF” (Nuvation Bio Inc., priority 2019, published 2022)

How the values were obtained:
[1] = test system: A427 cells; experiment: Cytotoxicity assay in A427 cell line (resazurin, 72 hr); assay type: cell-based; conditions: Homo sapiens, A-427; A427 lung epithelial cell line, 72 hr incubation, inhibition of proliferation
Protocol: A427 (HTB-53; ATCC), a lung epithelial cell line, was seeded in medium (MEM, 41090101; Gibco) at a cell count of 1500 cells per 100 μL per well in a 96 well edge plate (167425; ThermoFisher). Cells were allowed to grow at 37° C. for 24 hr in 5% CO2 environment (culture conditions) in a Nuaire incubator (humidified). Serially diluted test compounds (100 μL) within the desired testing concentration ranges were added to the culture plate and the cells further incubated in culture conditions for 72 hr. The experiment was terminated at the designated incubation time by replacing the medium with 100 μL of 1 mM of resazurin (R7017; Sigma) prepared in culture medium, and the plates were further incubated in culture conditions for 4-6 hr. Fluorescence was recorded using a multimodal plate reader (Biotek Synergy Neo) at an excitation wavelength of 535 nm and emission wavelength of 590 nm to obtain relative fluorescence units. Data were analysed as follows: the background fluorescence (blank containing only medium) value was subtracted from each reading and normalized with the vehicle control (DMSO treated cells) to obtain percent survival/proliferation. […] Potency of compounds in other cell lines (such as A549, As-Pc-1, Panc-10.05, MDA-MB-231, A172, U-87MG) may be determined in an analogous manner.

[2] = molecular target: T1, WEE1 kinase enzyme (Homo sapiens, UniProt P30291); experiment: WEE1 IC50 determination, LanthaScreen Terbium Labeled TR-FRET kinase assay; assay type: biochemical; conditions: WEE1 Enzyme 1 nM, ATP 10 μM, fluorescent-PolyGT substrate 200 nM, 1 h
T1 construct: purchased Invitrogen, Life Technologies PR7373A
T1 sequence (P30291 whole entry): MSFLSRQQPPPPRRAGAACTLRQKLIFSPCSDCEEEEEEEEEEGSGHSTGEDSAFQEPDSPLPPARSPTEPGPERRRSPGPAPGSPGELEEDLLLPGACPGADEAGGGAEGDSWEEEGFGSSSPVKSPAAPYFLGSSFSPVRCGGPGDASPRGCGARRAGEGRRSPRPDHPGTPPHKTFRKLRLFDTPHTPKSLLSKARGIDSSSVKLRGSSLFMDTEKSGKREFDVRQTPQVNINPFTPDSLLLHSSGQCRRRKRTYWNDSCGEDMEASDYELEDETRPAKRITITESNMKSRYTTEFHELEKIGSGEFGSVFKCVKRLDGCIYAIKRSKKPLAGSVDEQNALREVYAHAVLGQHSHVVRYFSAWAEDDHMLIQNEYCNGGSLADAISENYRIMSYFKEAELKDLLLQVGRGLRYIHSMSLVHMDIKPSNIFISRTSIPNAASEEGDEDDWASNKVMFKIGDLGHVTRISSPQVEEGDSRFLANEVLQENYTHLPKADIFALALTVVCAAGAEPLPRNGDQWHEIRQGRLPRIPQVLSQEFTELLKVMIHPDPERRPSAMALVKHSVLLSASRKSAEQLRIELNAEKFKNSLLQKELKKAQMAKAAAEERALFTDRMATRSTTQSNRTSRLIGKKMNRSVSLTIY
Protocol: IC50 values of the compounds against WEE1 kinase enzyme were determined by LanthaScreen™ Terbium Labeled TR-FRET assay. Kinase assays were performed in 1× kinase buffer (#PV6135, Invitrogen, Life Technologies, Grand Island, N.Y.) where total reaction volume was 10 μL in low-volume 384-well plates (#4511, Corning). Serially diluted compounds (3-fold) were incubated with WEE1 Enzyme (1 nM) (#PR7373A, Invitrogen, Life Technologies, Grand Island, N.Y.) for 10 min; a mixture of ATP (10 μM) (#A1852, Sigma, St. Louis, Mo.) and fluorescent-PolyGT substrate (200 nM) (#PV3610, Invitrogen, Life Technologies, Grand Island, N.Y.) was added and incubated in dark at room temperature for 1 h. After 1 h, 10 μL stop solution containing terbium labeled antibody (4 nM) (#PV3529, Invitrogen, Life Technologies, Grand Island, N.Y.) and EDTA (#E5134, Sigma, St. Louis, Mo.) (20 mM) in TR-FRET dilution buffer (#PV3574, Invitrogen, Life Technologies, Grand Island, N.Y.) were added. Readings were taken in a Synergy Neo plate reader (BioTek, Winooski, Vt.) at single excitation of 340 nm and dual emission at 495 nm and 520 nm respectively.
The % activity of test samples was calculated as (Sample−Min)*100/(Max−Min). [Max: DMSO control, complete reaction with enzyme & DMSO and Min: No enzyme & DMSO]. Percent inhibition (100-% activity) was fitted to the “four-parameter logistic model” in XLfit for determination of IC50 values.

IC50 [2] [µM]	Compound	IC50 [1] [µM]
0.021	CC(C)N1CCc2ccc(Nc3ncc4c(n3)OCN(c3c(Cl)cccc3Cl)C4=O)cc2C1 [Compound No. 1.43, 3-(2,6-dichlorophenyl)-7-((2-isopropyl-1,2,3,4-tetrahydroisoquinolin-7-yl)amino)-2,3-dihydro-4H-pyrimido[5,4-e][1,3]oxazin-4-one]	5.5
0.206	CC(C)N1CCc2cc(Nc3ncc4c(n3)OCN(c3c(Cl)cccc3Cl)C4=O)ccc2C1 [Compound No. 1.40, 3-(2,6-dichlorophenyl)-7-((2-isopropyl-1,2,3,4-tetrahydroisoquinolin-6-yl)amino)-2,3-dihydro-4H-pyrimido[5,4-e][1,3]oxazin-4-one]	
0.125	CN(C)CC(=O)N1CCc2cc(Nc3ncc4c(n3)OCN(c3c(Cl)cccc3Cl)C4=O)ccc2C1(C)C [1.48, 3-(2,6-dichlorophenyl)-7-((2-(dimethylglycyl)-1,1-dimethyl-1,2,3,4-tetrahydroisoquinolin-6-yl)amino)-2,3-dihydro-4H-pyrimido[5,4-e][1,3]oxazin-4-one]	
0.145	CN(C)CC(=O)N1CCc2cc(Nc3ncc4c(n3)OCN(c3c(Cl)cccc3Cl)C4=O)ccc2C1 [1.37, 3-(2,6-dichlorophenyl)-7-(2-(2-(dimethylamino)acetyl)-1,2,3,4-tetrahydroisoquinolin-6-ylamino)-2H-pyrimido[5,4-e][1,3]oxazin-4 (3H)-one]	
0.225	CN(C)CC(=O)N1CCc2ccc(Nc3ncc4c(n3)OCN(c3c(Cl)cccc3Cl)C4=O)cc2C1 [Compound No. 1.44, 3-(2,6-dichlorophenyl)-7-((2-(dimethylglycyl)-1,2,3,4-tetrahydroisoquinolin-7-yl)amino)-2,3-dihydro-4H-pyrimido[5,4-e][1,3]oxazin-4-one]	
